Results taken from patent publication US20250228835A1, “PYRIDINYLOXYPYRIDINES AND RELATED COMPOUNDS AND THEIR USE IN TREATING MEDICAL CONDITIONS” (Rectify Pharmaceuticals, Inc., priority 2024, published 2025).

Legend:
ABCC6 WT = biological target: T1, ABCC6 WT (Homo sapiens, UniProt O95255); test: ABCC6 WT assay: HiBit protein expression; assay type: cell-based; details: HEK-293 cells transiently expressing HiBit-tagged ABCC6 WT; 24 h treatment; top concentration 20 μM; read-out: ABCC6 WT EC50, Emax
T1 construct: expressed in transfected cells; host or cells: HEK-293 (transient, Lipofectamine 2000)
T1 sequence (O95255 whole entry): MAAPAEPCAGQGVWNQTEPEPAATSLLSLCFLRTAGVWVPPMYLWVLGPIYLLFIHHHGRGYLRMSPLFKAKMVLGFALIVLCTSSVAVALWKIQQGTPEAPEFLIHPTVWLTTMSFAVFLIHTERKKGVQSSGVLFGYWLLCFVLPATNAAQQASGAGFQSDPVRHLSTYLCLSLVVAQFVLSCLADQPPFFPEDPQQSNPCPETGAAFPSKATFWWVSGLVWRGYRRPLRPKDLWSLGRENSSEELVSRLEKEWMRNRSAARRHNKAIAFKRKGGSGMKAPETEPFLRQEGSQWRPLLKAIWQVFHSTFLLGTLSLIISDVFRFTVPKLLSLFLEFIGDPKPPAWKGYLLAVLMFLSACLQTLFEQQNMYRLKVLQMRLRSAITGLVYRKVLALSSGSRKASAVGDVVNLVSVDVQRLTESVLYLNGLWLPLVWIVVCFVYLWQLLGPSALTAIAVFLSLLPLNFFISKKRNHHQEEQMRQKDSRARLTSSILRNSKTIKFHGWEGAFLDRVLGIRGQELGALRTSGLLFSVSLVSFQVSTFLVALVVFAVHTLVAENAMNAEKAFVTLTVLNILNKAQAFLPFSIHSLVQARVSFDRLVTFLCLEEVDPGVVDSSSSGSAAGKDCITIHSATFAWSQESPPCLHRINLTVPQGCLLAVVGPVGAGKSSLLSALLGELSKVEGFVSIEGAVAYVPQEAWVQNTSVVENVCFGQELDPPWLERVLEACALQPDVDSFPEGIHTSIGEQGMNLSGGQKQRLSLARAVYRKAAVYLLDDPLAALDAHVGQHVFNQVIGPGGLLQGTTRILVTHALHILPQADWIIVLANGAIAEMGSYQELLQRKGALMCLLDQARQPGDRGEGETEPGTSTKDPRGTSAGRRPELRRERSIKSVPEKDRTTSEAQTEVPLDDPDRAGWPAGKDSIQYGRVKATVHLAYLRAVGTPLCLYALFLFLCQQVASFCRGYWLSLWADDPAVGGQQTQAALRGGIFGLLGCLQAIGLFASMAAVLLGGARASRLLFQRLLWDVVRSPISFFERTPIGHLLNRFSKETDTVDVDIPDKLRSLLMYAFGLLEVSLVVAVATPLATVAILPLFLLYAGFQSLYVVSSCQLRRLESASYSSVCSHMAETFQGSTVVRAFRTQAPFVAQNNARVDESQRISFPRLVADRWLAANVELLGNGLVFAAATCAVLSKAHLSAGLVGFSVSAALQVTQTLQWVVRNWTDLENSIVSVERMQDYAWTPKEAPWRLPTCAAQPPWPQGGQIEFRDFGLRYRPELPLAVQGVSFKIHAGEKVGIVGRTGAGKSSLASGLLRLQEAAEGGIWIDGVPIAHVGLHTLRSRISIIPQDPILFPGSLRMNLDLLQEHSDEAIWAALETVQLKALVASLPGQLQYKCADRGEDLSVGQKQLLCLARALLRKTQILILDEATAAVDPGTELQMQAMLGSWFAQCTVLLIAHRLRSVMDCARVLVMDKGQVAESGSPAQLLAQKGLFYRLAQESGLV
How it was run: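 HEK-293 cells transiently transfected with HiBit-tagged human ABCC6 WT cDNA, seeded 24 h post-transfection, treated 24 h at 37° C with ten 2-fold doses (top 20 μM final, 0.15% DMSO). HiBit lytic luminescence reports protein expression; Emax and EC50 derived.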

ABCD2 WT = biological target: T2, ABCD2 WT (Homo sapiens, UniProt Q9UBJ2); test: D2 correction dose-response assay: ABCD2 WT HiBit protein expression; assay type: cell-based; details: HEK-293/ABCD2 WT cells, 24 hours treatment, HiBit luminescence; class combines EC50 and Mean MaxAct (fold); read-out: ABCD2 WT EC50, Emax
T2 construct: expressed in transfected cells
T2 sequence (Q9UBJ2 1-740): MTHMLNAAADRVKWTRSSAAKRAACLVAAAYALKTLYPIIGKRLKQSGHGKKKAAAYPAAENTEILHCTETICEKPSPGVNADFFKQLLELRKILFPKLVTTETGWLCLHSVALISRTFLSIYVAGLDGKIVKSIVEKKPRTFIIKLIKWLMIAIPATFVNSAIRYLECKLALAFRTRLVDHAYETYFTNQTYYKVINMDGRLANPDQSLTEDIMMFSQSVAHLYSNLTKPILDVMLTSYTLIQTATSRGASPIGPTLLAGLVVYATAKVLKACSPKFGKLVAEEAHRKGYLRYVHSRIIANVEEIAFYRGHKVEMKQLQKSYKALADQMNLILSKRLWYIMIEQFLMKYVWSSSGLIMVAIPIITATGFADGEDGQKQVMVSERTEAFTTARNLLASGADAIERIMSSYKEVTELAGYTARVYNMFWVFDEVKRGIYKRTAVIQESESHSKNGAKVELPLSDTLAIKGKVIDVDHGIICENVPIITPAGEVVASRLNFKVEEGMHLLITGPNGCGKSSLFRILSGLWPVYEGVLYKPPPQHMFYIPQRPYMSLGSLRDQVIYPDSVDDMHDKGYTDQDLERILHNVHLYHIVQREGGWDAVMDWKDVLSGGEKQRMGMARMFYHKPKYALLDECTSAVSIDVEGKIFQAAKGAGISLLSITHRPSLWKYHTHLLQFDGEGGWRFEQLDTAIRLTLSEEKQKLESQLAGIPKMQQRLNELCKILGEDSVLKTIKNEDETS
How it was run: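 HEK-293 cells stably expressing HiBit-tagged human ABCD2 WT were treated with 11 doses (3-fold dilutions, top final 30 μM, 0.3% DMSO) for 24 h at 37 °C. Expression was measured by HiBit lytic luminescence after 1 h at 25 °C, giving EC50 and Emax.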

| EC50 (ABCC6 WT) | EC50 (ABCD2 WT) | Compound |
| --- | --- | --- |
| < 1 µM | < 1 µM | CNS(=O)(=O)c1ccc(-c2cncc(Cl)c2)nc1Oc1c(C)cc(C)cc1C1CC1 [Compound I-77] |
| < 1 µM | > 25 µM | Cc1cc(C)c(Oc2nc(-c3cncc(Cl)c3)ccc2N(C)S(=O)(=O)c2cccnc2)c(C)c1 [Compound I-69] |
| < 1 µM | < 1 µM | Cc1cc(C)c(Oc2nc(-c3cncc(Cl)c3)ccc2N(C)S(=O)(=O)c2cnn(C)c2)c(C)c1 [Compound I-70] |
| < 25 µM | < 25 µM | Cc1cc(C)c(Oc2nc(-c3cncc(Cl)c3)ccc2S(=O)(=O)Nc2cnn(C)c2)c(C2CC2)c1 [Compound I-75] |
| < 1 µM | < 25 µM | Cc1cc(C)c(Oc2nc(-c3cncc(Cl)c3)ccc2NS(=O)(=O)c2cccnc2)c(C)c1 [Compound I-71] |
| < 1 µM | 1 to 10 µM | Cc1cc(C)c(Oc2nc(-c3cncc(Cl)c3)cnc2S(N)(=O)=O)c(C)c1Cl [Compound I-90] |
| < 1 µM | 1 to 10 µM | COC1CC(NS(=O)(=O)c2ccc(-c3cncc(Cl)c3)nc2Oc2c(C)cc(C)cc2C)C1 (stereo not shown) [Compound I-78] |
| 1 to 10 µM | < 1 µM | Cc1cc(C)c(Oc2nc(-c3cncc(Cl)c3)ccc2NS(=O)(=O)c2cnn(C)c2)c(C)c1 [Compound I-72] |
| 1 to 10 µM | 1 to 10 µM | CNS(=O)(=O)c1ccc(N2CCN(C(=O)C3CC3)CC2)nc1Oc1c(C)cc(C)cc1C [Compound I-73] |
| 1 to 10 µM | 1 to 10 µM | Cc1cc(C)c(Oc2nc(-c3cncc(Cl)c3)ccc2S(=O)(=O)NCc2ccccn2)c(C)c1 [Compound I-86] |
| ≥ 25 µM | 1 to 10 µM | Cc1cc(C)c(Oc2nc(-c3cncc(Cl)c3)ccc2S(=O)(=O)NC(c2ccccn2)C(F)(F)F)c(C)c1 (single isomer, unassigned) [Compound I-80] |
| ≥ 25 µM | 1 to 10 µM | Cc1cc(C)c(Oc2nc(-c3cncc(Cl)c3)ccc2S(=O)(=O)N(C)Cc2ccccc2)c(C)c1 [Compound I-85] |
| 1 to 10 µM | < 25 µM | COC1CC(NS(=O)(=O)c2ccc(-c3cncc(Cl)c3)nc2Oc2c(C)cc(C)cc2C2CC2)C1 (stereo not shown) [Compound I-74] |
| 1 to 10 µM | 1 to 10 µM | Cc1cc(C)c(Oc2nc(-c3cncc(Cl)c3)ccc2S(=O)(=O)N[C@@H](c2ccccc2)C(F)(F)F)c(C)c1 [Compound I-83] |
| 1 to 10 µM | 1 to 10 µM | Cc1cc(C)c(Oc2nc(-c3cncc(Cl)c3)ccc2S(=O)(=O)NCc2ccccc2)c(C)c1 [Compound I-88] |
| ≥ 25 µM | > 25 µM | Cc1cc(C)c(Oc2nc(-c3cncc(Cl)c3)ccc2NS(=O)(=O)C(C)(C)C)c(C)c1 [Compound I-68] |
| 1 to 10 µM | 1 to 10 µM | Cc1cc(C)c(Oc2nc(-c3cncc(Cl)c3)ccc2S(=O)(=O)Nc2cnn(C)c2)c(C)c1 [Compound I-94] |
| 1 to 10 µM | 1 to 10 µM | Cc1cc(C)c(Oc2nc(-c3cncc(Cl)c3)ccc2S(=O)(=O)N[C@H](c2ccccc2)C(F)(F)F)c(C)c1 [Compound I-81] |
| 1 to 10 µM | > 25 µM | CNS(=O)(=O)c1ccc(N2CCN(C)C(=O)C2)nc1Oc1c(C)cc(C)cc1C [Compound I-92] |
| 1 to 10 µM | > 25 µM | Cc1cc(C)c(Oc2nc(-c3cncc(Cl)c3)ccc2S(=O)(=O)NCc2cc(C(F)(F)F)ccn2)c(C)c1 [Compound I-87] |
| ≥ 25 µM | 1 to 10 µM | Cc1cc(C)c(Oc2nc(-c3cncc(Cl)c3)ccc2S(=O)(=O)NCc2ccccn2)c(C2CC2)c1 [Compound I-76] |
| < 25 µM | 1 to 10 µM | Cc1cc(C)c(Oc2nc(-c3cncc(Cl)c3)ncc2S(N)(=O)=O)c(C)c1Cl [Compound I-93] |
| 1 to 10 µM | 1 to 10 µM | Cc1cc(C)c(Oc2nc(-c3cncc(Cl)c3)ccc2S(=O)(=O)NC(c2ccccn2)C(F)(F)F)c(C)c1 (single isomer, unassigned) [Compound I-79] |
| < 25 µM | 1 to 10 µM | CNS(=O)(=O)c1ncc(-c2cncc(Cl)c2)nc1Oc1c(C)cc(C)c(Cl)c1C [Compound I-89] |

More lines, now with the values behind:

| Compound | EC50 (ABCC6 WT) | EC50 (ABCD2 WT) |
| --- | --- | --- |
| Cc1cc(C)c(Oc2nc(-c3cncc(Cl)c3)ccc2N(C)S(=O)(=O)Cc2ccccc2)c(C)c1 [Compound I-64] | < 25 µM | 1 to 10 µM |
| Cc1cc(C)c(Oc2nc(-c3cncc(Cl)c3)ccc2NS(=O)(=O)C2CC2)c(C)c1 [Compound I-49] | < 1 µM | > 25 µM |
| Cc1ccc(Oc2nc(-c3cncc(C#N)c3)ccc2NS(C)(=O)=O)c(C)n1 [Compound I-3] | < 1 µM | 1 to 10 µM |
| Cc1cc(C)c(Oc2nc(-c3ccc(C#N)nc3)ccc2NS(C)(=O)=O)c(C)c1 [Compound I-45] | < 1 µM | < 1 µM |
| Cc1cc(C)c(Oc2nc(-c3cncc(C(N)=O)c3)ccc2NS(C)(=O)=O)c(C2CC2)n1 [Compound I-1] | < 1 µM | 1 to 10 µM |
| Cc1cc(C)c(Oc2cc(-c3cncc(Cl)c3)cnc2NS(C)(=O)=O)c(C)c1 [Compound I-60] | 1 to 10 µM | 1 to 10 µM |
| COC1CC(S(=O)(=O)Nc2ccc(-c3cncc(Cl)c3)nc2Oc2c(C)cc(C)cc2C)C1 (stereo not shown) [Compound I-51] | < 1 µM | > 25 µM |
| Cc1cc(C)c(Oc2nc(-c3cncc(Cl)c3)ccc2N(C)S(=O)(=O)c2cccnc2)c(C2CC2)c1 [Compound I-53] | 1 to 10 µM | > 25 µM |
| COc1ccc2nc[nH]c2c1S(=O)(=O)Nc1ccc(-c2cncc(Cl)c2)nc1Oc1c(C)cc(C)cc1C [Compound I-63] | < 1 µM | > 25 µM |
| Cc1cc(C)c(Oc2nc(-c3cncc(Cl)c3)ccc2N2CCCCS2(=O)=O)c(C)c1 [Compound I-66] | 1 to 10 µM | 10 to 25 µM |
| Cc1cc(C)c(Oc2nc(-c3cncc(Cl)c3)ccc2N(C)S(C)(=O)=O)c(C)c1 [Compound I-48] | < 1 µM | < 1 µM |
| Cc1cc(C)c(Oc2nc(-c3cncc(Cl)c3)ccc2NS(C)(=O)=O)c(C)c1 [Compound I-55] | < 1 µM | < 1 µM |
| CC(=O)NC1CN(c2ccc(NS(=O)(=O)c3cccnc3)c(Oc3c(C)cc(C)cc3C3CC3)n2)C1 [Compound I-50] | < 25 µM | > 25 µM |
| Cc1cc(C)c(Oc2nc(-c3cncc(Cl)c3)ccc2NS(=O)(=O)c2cnn(C)c2)c(C2CC2)c1 [Compound I-58] | < 25 µM | > 25 µM |
| Cc1cc(C)c(Oc2nc(-c3cncc(Cl)c3)ccc2NS(=O)(=O)Cc2ccccn2)c(C)c1 [Compound I-62] | ≥ 25 µM | < 1 µM |
| Cc1cc(C)c(Oc2nc(-c3cncc(Cl)c3)ccc2N2CCCS2(=O)=O)c(C)c1 [Compound I-67] | 1 to 10 µM | 1 to 10 µM |
| Cc1cc(C)c(Oc2nc(-c3cncc(Cl)c3)ccc2NS(=O)(=O)Cc2ccccc2)c(C)c1 [Compound I-65] | ≥ 25 µM | > 25 µM |
| Cc1cc(C)c(Oc2nc(-c3cncc(Cl)c3)ccc2NS(C)(=O)=O)c(C2CC2)c1 [Compound I-57] | < 1 µM | < 1 µM |
| Cc1cc(C)c(Oc2cc(-c3cncc(Cl)c3)ncc2NS(C)(=O)=O)c(C)c1 [Compound I-56] | < 1 µM | 1 to 10 µM |
| Cc1cc(C)c(Oc2nc(-c3cn[nH]c3)ccc2NS(C)(=O)=O)c(C2CC2)c1 [Compound I-2] | 10 to 25 µM | 10 to 25 µM |
| Cc1cc(C)c(Oc2nc(N3CCN(C(=O)C4CC4)CC3)ccc2NS(C)(=O)=O)c(C)c1 [Compound I-47] | 1 to 10 µM | 1 to 10 µM |
| Cc1cc(C)c(Oc2cc(-c3cncc(Cl)c3)cnc2N(C)S(=O)(=O)c2cnn(C)c2)c(C)c1 [Compound I-59] | ≥ 25 µM | 1 to 10 µM |
| Cc1cc(C)c(Oc2nc(-c3cncc(Cl)c3)ccc2N(C)S(=O)(=O)c2cnn(C)c2)c(C2CC2)c1 [Compound I-52] | < 1 µM | < 1 µM |
| Cc1cc(C)c(Oc2nc(N3CC4(C3)CN(S(=O)(=O)C3CC3)C4)ccc2NS(C)(=O)=O)c(C)c1 [Compound I-43] | ≥ 25 µM | > 25 µM |
| Cc1cc(C)c(Oc2nc(N3CCN(S(=O)(=O)C4CC4)CC3)ccc2NS(C)(=O)=O)c(C)c1 [Compound I-44] | 1 to 10 µM | 10 to 25 µM |
| Cc1cc(C)c(Oc2nc(-c3cncc(Cl)c3)ccc2NS(C)(=O)=O)c(C)n1 [Compound I-46] | < 1 µM | < 1 µM |
